Holding throughout (format): cell-based
Series [1] has as its target intracellular Leishmania major amastigotes (luciferase-expressing, in RAW 264.7 macrophages). The series can be described thus: Luciferase-expressing intracellular L. major amastigote-macrophage dose-response assay. As to the method: Macrophages were harvested from culture by removing all spent media, adding in 10 mL of fresh media, scraping adherent macrophages from the culture flask, and counting macrophages using trypan blue. The cells were resuspended at 2.0 × 10^5 cells/mL, and then dispensed in a volume of 50 μL to yield a final concentration of 10,000 macrophages/well in 384-well tissue culture–treated sterile white plates (Nunc/Thermo Fisher, Rochester, NY) using a Tecan EVO Freedom robotics system (Tecan U.S., Durham, NC). The plates were then incubated at 37°C in 5% CO2 atmosphere for 24 hours. After incubation, the media was removed from each well using the Tecan EVO Freedom robot, and 1 × 10^5 transfected L. major promastigotes were added to each well in a volume of 50 μL in DMEM/heat-inactivated fetal bovine serum (HIFBS) media and allowed to invade the macrophages. After overnight incubation, the media was removed from each well using the Tecan Freedom EVO robot, and each well was subsequently washed three times with 40 μL of fresh DMEM/HIFBS medium to remove all extracellular promastigotes. After the third wash, 69.2 μL of DMEM/HIFBS medium was added to each well using the Tecan EVO Freedom robot. Drug plates were prepared with the Tecan EVO Freedom using sterile 96-well plates containing 12 duplicate 2-fold serial dilutions of each test compound suspended in dimethyl sulfoxide (DMSO) for dose–response determinations. Of diluted test compound, 7.8 μL was added to the 69.2 μL media present in each well providing a 10-fold final dilution of compound. The final concentration range tested was 0.0005–1 μM for all assays. The plates were placed in a modular incubator chamber (Billups-Rothenburg, Del Mar, CA) that contained a humidity source, consisting of soaked gauze in a weigh boat, which was placed in the bottom of the chamber. Both valves on the system were opened and using a vent filter (Millipore, Billerica, MA), attached to the one valve, mixed gas containing 5% O2, 5% CO2, and a balance of nitrogen was allowed to pass through the system for 60 seconds. After 60 seconds, the exit valve was closed and the mixed gas was allowed to flow into the chamber for 10 seconds. At that point the remaining valve was closed. Chambers were gassed every other day. The chambers were incubated at 37°C for 96 hours. After 96 hours of incubation, 7.5 μL luciferin solution (Caliper Life Science, Hopkinton, MA) diluted to 150 μg/mL was added to each well, and the plates were incubated for 30 minutes at 37°C in the dark. Each plate was read using an Infinite M200 plate reader (Tecan Inc., Durham, NC).
The 50% inhibitory concentrations (IC50) were then generated for each dose–response test using GraphPad Prism (GraphPad Software Inc., San Diego, CA) using the nonlinear regression (sigmoidal dose–response/variable slope) equation.

For the next series, the system named is HepG2 cells. The series can be described thus: MTT cytotoxicity assay. The conditions noted are these: 48-hour incubation. As to the method: (§1) An 3-(4,5-dimethylthiazol-2-yl)-2,5-diphenyltetrazolium bromide (MTT) cytotoxicity counter assay was used to test all compounds from the MMV Malaria Box for cytotoxicity. The 384-well MTT cytotoxicity assay is a modification of the MTT method described by Ferrari and others[29] optimized for 384-well throughput. HepG2 target cells for this assay were cultured in […]. The HepG2 target cells for this assay were cultured as follows: HepG2 cells were cultured in complete Minimal Essential Medium (MEM; catalog no. 11090-099, Gibco-Invitrogen) prepared by supplementing MEM with 0.19% sodium bicarbonate (catalog no. 25080-094, Gibco-BRL), 10% HIFBS (catalog no. 16000-036, Gibco-Invitrogen, Grand Island, NY), 2 mM L-glutamine (catalog no. 25030-081, Gibco-Invitrogen), 0.1 mM MEM nonessential amino acids (catalog no. 11140-050, Gibco-Invitrogen), 0.009 mg/mL insulin (catalog no. I1882, Sigma), 1.76 mg/mL bovine serum albumin (catalog no. A1470, Sigma), 20 units/mL penicillin–streptomycin (catalog no. 15140-148, Gibco-Invitrogen), and 0.05 mg/mL gentamycin (catalog no. 15710-064, Gibco-Invitrogen). HepG2 cells cultured in complete MEM were first washed with 1× Hank's Balanced Salt Solution (catalog no. 14175-095, Invitrogen), trypsinized using a 0.25% trypsin/ethylenediaminetetraacetic acid solution (catalog no. 25200-106, Invitrogen), assessed for viability using trypan blue, and resuspended at 250,000 cells/mL. Drug plates were prepared with the Tecan EVO Freedom using sterile 96-well plates containing 12 duplicate 1.6-fold serial dilutions of each test compound suspended in DMSO. Of diluted test compound, 4.25 μL was then added to the 38.3 μL of media in each well providing a 10-fold final dilution of compound. Compounds were tested from a range of 57 to 10,000 ng/mL for all assays. The 4-azaindolo[2,1-b]quinazoline-6,12-dione was used as a toxicity control. After a 48-hour incubation period, 8 μL of a 1.5 mg/mL solution of MTT diluted in complete MEM media was added to each well. All plates were subsequently incubated in the dark for 1 hour at room temperature. After incubation, the media and drugs in each well was removed by shaking plate over sink, the plates were then left to dry in hood for 15 minutes. Next, 30 μL of isopropanol acidified by addition of hydrochloric acid at a final concentration of 0.36% was added to dissolve the formazan dye crystals created by reduction of MTT. Plates are put on a three-dimensional rotator for 15–30 minutes. Absorbance was determined in all wells using a Tecan icontrol 1.6 Infinite plate reader. The IC50 determinations were then generated for each toxicity dose–response test using GraphPad Prism (GraphPad Software Inc., San Diego, CA) using the nonlinear regression (sigmoidal dose–response/variable slope) equation.

Another series is described as follows: MTT cytotoxicity assay. The note with it: human, HepG2 cells, 48-hour incubation. As to the method: as §1
Where [2] appears, read: Leishmania major, RAW264.7, transgenic luciferase expressing intracellular L. major amastigote-macrophage parasites, 96 hours, read-out: Geometric mean L. major IC50 ± SD (n).
Setting [3] is: Leishmania major, RAW264.7, MMV Malaria Box L. major hits, intracellular amastigotes, 96 hours, read-out: IC50.
Where [4] appears, read: Leishmania major, RAW264.7, rounded values quoted in the discussion, read-out: L. major amastigote-macrophage IC50.

The values below come from PMC4751939, “Antileishmanial Activity of Compounds Derived from the Medicines for Malaria Venture Open Access Box against Intracellular Leishmania major Amastigotes” (The American Journal of Tropical Medicine and Hygiene, 2016).

Like-named read-outs stand apart in the source and are kept apart here. Some results are limits rather than exact numbers.

With “2-{2-[(4-nitrophenyl)methylidene]hydrazin-1-yl}-1H-1,3-benzodiazole [MMV666023]”, the IC50 worked out at 91.7 nM in series [1] (MMV Malaria Box L. major hits, intracellular amastigotes, 96 hours, read-out: IC50); 92 nM in series [1] (rounded values quoted in the discussion, read-out: L. major amastigote-macrophage IC50); 1300 nM in the series with HepG2 cells.

In the case of `C[C@@H]1[C@H](O)[C@@H](C)/C=C/C=C/C=C/C=C/C=C/C=C/C=C/[C@H](O[C@@H]2O[C@H](C)[C@@H](O)[C@H](N)[C@@H]2O)C[C@@H]2O[C@](O)(C[C@@H](O)C[C@@H](O)[C@H](O)CC[C@@H](O)C[C@@H](O)CC(=O)O[C@H]1C)C[C@H](O)[C@H]2C(=O)O` [Amphotericin B, reference compound], the IC50 in series [1] (setting [2]) is 27 ± 10 nM.

With `CC(=O)N1CCN(c2ccc(OCC3COC(Cn4ccnc4)(c4ccc(Cl)cc4Cl)O3)cc2)CC1` (stereo not drawn) [Ketoconazole, reference compound], in series [1] (setting [2]), the IC50 was determined as 19800 ± 3900 nM.

For the molecule `CCCCCn1c(=N)n(CC(O)COc2cccc(C)c2)c2ccccc21` (stereo not drawn) [MMV000444, 1-(2-imino-3-pentylbenzimidazol-1-yl)-3-(3-methylphenoxy)propan-2-ol], the half-maximal inhibitory concentration (IC50) in series [1] (setting [3]) is 267 nM. The IC50 at 48 h in “MTT cytotoxicity assay” was 4130 nM.

Take `c1ccc(CNc2nc(Nc3ccccc3)nc3ccccc23)cc1` [MMV006169, N-phenyl-N′-(phenylmethyl)quinazoline-2,4-diamine]: in series [1] (setting [3]), the IC50 is 467 nM. In “MTT cytotoxicity assay”, this molecule gave an IC50 at 48 h of 5660 nM.

For `Cc1ccccc1OCCSc1nc2ccc(NC(=O)c3cccs3)cc2s1` [MMV007396, N-[2-[2-(2-methylphenoxy)ethylsulfanyl]-1,3-benzothiazol-6-yl]thiophene-2-carboxamide], in series [1] (setting [3]), the IC50 stood at 120 nM. Also, in “MTT cytotoxicity assay”, the IC50 at 48 h stood at 3500 nM.

Regarding `COc1ccc(CCNC(=O)c2cc(S(=O)(=O)N3CC(C)CC(C)C3)ccc2Sc2ccc(F)cc2)cc1OC` (stereo not drawn) [MMV007557, N-[2-(3,4-dimethoxyphenyl)ethyl]-5-(3,5-dimethylpiperidin-1-yl)sulfonyl-2-(4-fluorophenyl)sulfanylbenzamide], in series [1] (setting [3]), the IC50 was found to be 180 nM. For the same molecule, the IC50 at 48 h in “MTT cytotoxicity assay” was > 6060 nM.

Regarding `Cc1ccc(Cn2c(N3CCC(C(=O)NCc4cccs4)CC3)nc3ccccc32)cc1` [MMV007564, 1-[1-[(4-methylphenyl)methyl]benzimidazol-2-yl]-N-(thiophen-2-ylmethyl)piperidine-4-carboxamide], the values for the IC50 in series [1] (setting [3]) and in series [1] (setting [4]) were 60.8 nM and 61 nM, respectively. Further, the IC50 at 48 h in the series “MTT cytotoxicity assay” is > 6060 nM.

Turning to `CCCCN(CCCC)S(=O)(=O)c1ccc(NC(=O)c2ccco2)cc1` [MMV007881, N-[4-(dibutylsulfamoyl)phenyl]furan-2-carboxamide], in series [1] (setting [3]), the IC50 came to 418 nM. This molecule registered an IC50 at 48 h in “MTT cytotoxicity assay” of 5600 nM.

Regarding `Cc1c(C)n(Cc2ccc(F)cc2)c2ccc(C(=O)NCc3ccco3)cc12` [MMV008149, 1-[(4-fluorophenyl)methyl]-N-(furan-2-ylmethyl)-2,3-dimethylindole-5-carboxamide], the IC50 in series [1] (setting [3]) stood at 229 nM. In the series “MTT cytotoxicity assay”, this molecule registered an IC50 at 48 h of 3260 nM.

For the molecule `C[n+]1c2ccccc2nc2ccc(NCCO)cc21` [MMV396693, 2-[(10-methylphenazin-10-ium-2-yl)amino]ethanol], inhibition in series [1] (Leishmania major, RAW264.7, 96 h) was half-maximal at 53.4 nM (IC50). The same molecule registered a half-maximal inhibitory concentration (IC50) at 48 h in “MTT cytotoxicity assay” of 5660 nM.

For the molecule `CCOC(=O)c1cn(CC)c2cc(N3CCCCC3)c(F)cc2c1=O` [MMV665827, ethyl 1-ethyl-6-fluoro-4-oxo-7-piperidin-1-ylquinoline-3-carboxylate], the IC50 in series [1] (setting [3]) was determined as 478 nM. This molecule also had an IC50 at 48 h in the series “MTT cytotoxicity assay” of 1720 nM.

For `COc1ccc(CCN2CCC(CN(C)Cc3cnn(-c4ccccc4)c3)CC2)cc1` [MMV666069], the IC50 in series [1] (setting [3]) turned out to be 366 nM. The molecule also yielded an IC50 at 48 h in the series “MTT cytotoxicity assay” of 5820 nM.

Regarding `O=C(NC(c1ccccc1)c1ccc2cccnc2c1O)c1ccccc1` (stereo not drawn) [MMV666080, N-[(8-hydroxyquinolin-7-yl)-phenylmethyl]benzamide], the IC50 was determined as 14.9 nM in series [1] (setting [3]) and 15 nM in series [1] (setting [4]). For the same molecule, the half-inhibitory concentration (IC50) at 48 h in “MTT cytotoxicity assay” is > 6060 nM.

On to `O=[N+]([O-])c1ccc(C=NNc2nc3ccccc3[nH]2)cc1` [MMV666607, 2-{2-[(4-nitrophenyl)methylidene]hydrazin-1-yl}-1H-1,3-benzodiazole], for which the IC50 in series [1] (setting [3]) and in series [1] (setting [4]) was 134 nM each time. Moreover, the IC50 at 48 h in the series “MTT cytotoxicity assay” is > 6060 nM.

Consider `CCOc1ccc(N2C(N)=NC(N)=NC2(C)C)cc1` [MMV667486, 1-(4-ethoxyphenyl)-6,6-dimethyl-1,3,5-triazine-2,4-diamine], for which the IC50 in series [1] (setting [3]) turned out to be 193 nM. Besides, the half-maximal inhibitory concentration (IC50) at 48 h in “MTT cytotoxicity assay” is > 6060 nM.

With `CCCCCCCCCCCCCCCCOP(=O)([O-])OCC[N+](C)(C)C` [Miltefosine, reference compound], in series [1] (setting [2]), the IC50 worked out at 550 ± 30 nM.

Turning to `NC[C@@H]1O[C@H](O[C@H]2[C@@H](O)[C@H](O[C@@H]3[C@@H](O)[C@H](N)C[C@H](N)[C@H]3O[C@H]3O[C@H](CO)[C@@H](O)[C@H](O)[C@H]3N)O[C@@H]2CO)[C@H](N)[C@@H](O)[C@@H]1O` [Paromomycin, reference compound], in series [1] (setting [2]), the IC50 is 780 ± 310 nM.

Take `N=C(N)c1ccc(OCCCCCOc2ccc(C(=N)N)cc2)cc1` [Pentamidine, reference compound]: the half-maximal inhibitory concentration (IC50) in series [1] (setting [2]) stood at 3420 ± 1700 nM.

Turning to `O=C(O)[C@@H]1[O][Sb](=[O])([O][Sb]2(=[O])[O][C@H]([C@H](O)CO)[C@H](O)[C@H](C(=O)O)[O]2)[O][C@H]([C@H](O)CO)[C@@H]1O.[Na+].[Na+].[Na+]` (stereo partly drawn) [Pentostam, reference compound], in series [1] (transgenic luciferase expressing intracellular L. major amastigote-macrophage parasites, 96 hours, read-out: Geometric mean L. major IC50 ± SD (n)), the IC50 came to 9080 ± 350 nM.

In the case of `CCN(CC)CCCCCCNc1cc(OC)cc2c(C)ccnc12` [Sitamaquine, reference compound], the IC50 in series [1] (setting [2]) was determined as 10000 ± 370 nM.
